For 24 molecules, Ki results are on record in patent US8461328B2, “Tricyclic heterocyclic compounds, compositions and methods of use thereof” (Genentech, Inc., priority 2010, dated 2013).

Holding throughout (assay type): biochemical
In one test the target is T1, JAK2 (Homo sapiens, UniProt O60674).
T1 construct: made in house; host or cells: SF9 insect cells (baculovirus)
Description: JAK2 inhibition (Table 4). The note with it: read-out: JAK2 Ki.

A further test concerns the target T2, JAK3 (Homo sapiens, UniProt P52333).
T2 construct: made in house; host or cells: SF9 insect cells (baculovirus)
Description: JAK3 inhibition (Table 4). The note with it: read-out: JAK3 Ki.

In a further test the target is T3, TYK2 (Homo sapiens, UniProt P29597).
T3 construct: made in house; host or cells: SF9 insect cells (baculovirus)
T3 sequence (P29597 873-1187): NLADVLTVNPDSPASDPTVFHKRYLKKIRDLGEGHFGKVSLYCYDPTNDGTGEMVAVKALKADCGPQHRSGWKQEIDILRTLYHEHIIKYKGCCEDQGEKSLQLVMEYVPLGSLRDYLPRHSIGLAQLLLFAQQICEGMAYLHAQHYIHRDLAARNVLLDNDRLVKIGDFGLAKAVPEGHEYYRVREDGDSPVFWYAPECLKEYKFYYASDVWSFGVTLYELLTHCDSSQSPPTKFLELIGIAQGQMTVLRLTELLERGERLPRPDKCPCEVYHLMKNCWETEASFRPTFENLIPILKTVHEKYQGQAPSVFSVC
Description: TYK2 inhibition (Table 4).

A further test deals with T4, JAK1 (Homo sapiens, UniProt P23458).
T4 construct: made in house; host or cells: SF9 insect cells (baculovirus)
T4 sequence (P23458 852-1154): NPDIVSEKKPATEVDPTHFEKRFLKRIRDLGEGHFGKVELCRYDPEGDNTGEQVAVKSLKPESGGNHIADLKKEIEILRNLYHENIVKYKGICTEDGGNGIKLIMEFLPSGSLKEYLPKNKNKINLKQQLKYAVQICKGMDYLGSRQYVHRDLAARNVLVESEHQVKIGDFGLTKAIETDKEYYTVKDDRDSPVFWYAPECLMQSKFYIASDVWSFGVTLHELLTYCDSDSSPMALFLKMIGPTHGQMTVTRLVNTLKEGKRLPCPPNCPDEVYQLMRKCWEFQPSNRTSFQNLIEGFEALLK
Briefly: JAK1 inhibition (Table 4). The note with it: read-out: JAK1 Ki.

T2 sequence (P52333 783-1124): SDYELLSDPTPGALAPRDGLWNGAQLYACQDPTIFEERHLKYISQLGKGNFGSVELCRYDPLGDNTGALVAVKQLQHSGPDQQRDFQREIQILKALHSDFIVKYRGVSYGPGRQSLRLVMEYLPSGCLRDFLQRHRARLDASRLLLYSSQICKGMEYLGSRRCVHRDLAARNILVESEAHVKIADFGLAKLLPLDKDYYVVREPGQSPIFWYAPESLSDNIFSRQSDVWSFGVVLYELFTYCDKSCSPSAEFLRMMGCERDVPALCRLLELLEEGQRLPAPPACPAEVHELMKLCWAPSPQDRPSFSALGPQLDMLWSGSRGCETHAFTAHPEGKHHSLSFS
T1 sequence (O60674 812-1132): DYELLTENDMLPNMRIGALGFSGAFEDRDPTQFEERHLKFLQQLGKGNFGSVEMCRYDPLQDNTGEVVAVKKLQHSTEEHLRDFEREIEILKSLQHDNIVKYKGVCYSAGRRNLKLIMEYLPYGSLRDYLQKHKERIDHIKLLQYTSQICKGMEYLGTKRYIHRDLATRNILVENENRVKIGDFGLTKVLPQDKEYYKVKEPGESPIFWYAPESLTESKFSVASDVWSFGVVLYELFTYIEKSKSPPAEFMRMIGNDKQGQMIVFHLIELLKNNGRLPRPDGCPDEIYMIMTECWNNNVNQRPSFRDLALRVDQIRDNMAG

Turning to `CC(C)(C)OC(=O)N1CCCC1(C)C(=O)N1CCC(n2cnc3cnc4[nH]ccc4c32)CC1` (racemic) [Example 244, 2-Methyl-2-[4-(6H-1,3,5,6-tetraaza-as-indacen-1-yl)-piperidine-1-carbonyl]-pyrrolidine-1 carboxylic acid tert-butyl ester], the Ki (usually a dissociation constant, usually derived from enzyme kinetics or from competition with a known ligand) at JAK2 was 363 nM; at JAK3, 3400 nM; on TYK2, 1820 nM; on JAK1 it was 198 nM.

With `CN(C(=O)Cc1nc2cnc3[nH]ccc3c2n1C1CCN(Cc2ccccc2)CC1)C1CCCC1` [Example 101, 2-[1-(1-Benzyl-piperidin-4-yl)-1,6-dihydro-1,3,5,6-tetraaza-as-indacen-2-yl]-N-cyclopentyl-N-methyl-acetamide], the Ki on JAK2 was 194 nM; at JAK3, 27.7 nM; on TYK2, 3230 nM; on JAK1, 41 nM.

`O=C(Cc1nc2cnc3[nH]ccc3c2n1C1CCCOC1)NC1CCC1` (racemic) [Example 965, N-Cyclobutyl-2-[1-(tetrahydro-pyran-3-yl)-1,6-dihydro-1,3,5,6-tetraaza-as-indacen-2-yl]-acetamide]: the Ki at JAK2 stood at 160 nM; on JAK3, 107 nM; on TYK2, 306 nM; on JAK1, 31.6 nM.

With `CC(C)(C)OC(=O)N1CCC[C@@H]1CN[C@H]1CC[C@H](n2cnc3cnc4[nH]ccc4c32)CC1` [Example 556, trans (R)-2-{[4-(6H-1,3,5,6-Tetraaza-as-indacen-1-yl)-cyclohexylamino]-methyl}-pyrrolidine-1-carboxylic acid tert-butyl ester], the inhibition constant (Ki) was found to be 190 nM at JAK2, 894 nM at JAK3, 1460 nM on TYK2 and 60.4 nM on JAK1.

For `CC(=O)N1CCC(c2nc3cnc4[nH]ccc4c3n2C2CCN(C(C)CC#N)CC2)CC1` (racemic) [Example 400, 3-{4-[2-(1-Acetyl-piperidin-4-yl)-6H-1,3,5,6-tetraaza-as-indacen-1-yl]-piperidin-1-yl}-butyronitrile], the Ki worked out at 115 nM on JAK2, 283 nM at JAK3, 428 nM at TYK2 and 62.6 nM at JAK1.

Consider `N#Cc1cccc(CN2CCC[C@@H](n3cnc4cnc5[nH]ccc5c43)C2)c1` [Example 45, 3-[(R)-3-(6H-1,3,5,6-Tetraaza-as-indacen-1-yl)-piperidin-1-ylmethyl]benzonitrile], for which the inhibition constant Ki turned out to be 18 nM on JAK2, 27.5 nM on JAK3, 129 nM at TYK2 and 7.58 nM at JAK1.

Regarding `N#Cc1cccc(CN2CCC(n3cnc4cnc5[nH]ccc5c43)CC2)n1` [Example 304, 6-[4-(6H-1,3,5,6-Tetraaza-as-indacen-1-yl)-piperidin-1-ylmethyl]-pyridine-2-carbonitrile], the Ki is 3.55 nM on JAK2, 20.4 nM on JAK3, 52.4 nM on TYK2 and 3.32 nM at JAK1.

With `CC(C)S(=O)(=O)NCc1nc2cnc3[nH]ccc3c2n1C1CCN(CCC#N)CC1` [Example 495, Propane-2-sulfonic acid {1-[1-(2-cyano-ethyl)-piperidin-4-yl]-1,6-dihydro-1,3,5,6-tetraaza-as-indacen-2-ylmethyl}-amide], the Ki at JAK2 amounted to 106 nM; on JAK3 it was 97.7 nM; at TYK2, 415 nM; at JAK1, 16.2 nM.

Turning to `O=C1CC2CCC(n3cnc4cnc5[nH]ccc5c43)CC2N1` (racemic) [Example 111, 6-(6H-1,2,3,5,6-Tetraaza-as-indacen-1-yl)-octahydro-indol-2-one], the Ki at JAK2 worked out at 10.4 nM; at JAK3, 26.5 nM; on TYK2, 21 nM; on JAK1 it was 4.87 nM.

For `CC(C)(O)[C@H]1CC[C@H](n2cnc3cnc4[nH]ccc4c32)CC1` [Example 148, Trans 2-[4-(6H-1,2,3,5,6-Tetraaza-as-indacen-1-yl)-cyclohexyl]-propan-2-ol], the Ki was 1.92 nM on JAK2, 23.8 nM on JAK3, 12.3 nM at TYK2 and 1.73 nM at JAK1.

Turning to `CC(C)(C)OC(=O)NC1CCCC(n2cnc3cnc4[nH]ccc4c32)C1` (single isomer, unassigned) [Example 475, [3-(6H-1,3,5,6-Tetraaza-as-indacen-1-yl)-cyclohexyl]-carbamic acid tert-butyl ester], the Ki turned out to be 110 nM on JAK2, 21.9 nM on JAK3, 2250 nM at TYK2 and 32.4 nM on JAK1.

`N#Cc1nc2cnc3[nH]ccc3c2n1C1CCN(Cc2cccnc2)CC1` [Example 290, 1-(1-Pyridin-3-ylmethyl-piperidin-4-yl)-1,6-dihydro-1,3,5,6-tetraaza-as-indacene-2-carbonitrile]: the Ki at JAK2 worked out at 4.88 nM; on JAK3 it was 6.27 nM; at TYK2, 204 nM; at JAK1, 3.94 nM.

Take `NC(=O)Cc1nc2cnc3[nH]ccc3c2n1C1CCNCC1` [Example 260, 2-(1-Piperidin-4-yl-1,6-dihydro-1,3,5,6-tetraaza-as-indacen-2-yl)-acetamide]: the Ki on JAK2 came out at 847 nM; on JAK3, 302 nM; on TYK2 it was 795 nM; at JAK1 it was 41.6 nM.

Regarding `O=S(=O)(c1cccnc1)N1CCC(n2cnc3cnc4[nH]ccc4c32)CC1` [Example 88, 1-[1-(Pyridine-3-sulfonyl)-piperidin-4-yl]-1,6-dihydro-1,3,5,6-tetraaza-as-indacene], the Ki was determined as 10.6 nM on JAK2, 407 nM on JAK3, 65.9 nM at TYK2 and 8.98 nM at JAK1.

For `Cc1nc2cnc3[nH]ccc3c2n1C1CCC(NCCC#N)C1` (racemic) [Example 627, Racemic trans 3-[3-(2-methyl-6H-1,2,3,5,6-tetraaza-as-indacen-1-yl)-cyclopentylamino]-propionitrile], the Ki at JAK2 came out at 5.91 nM; on JAK3, 14 nM; at TYK2, 12.7 nM; on JAK1 it was 1.36 nM.

With `OCc1nc2cnc3[nH]ccc3c2n1C1CCOCC1` [Example 542, [1-(Tetrahydro-pyran-4-yl)-1,6-dihydro-1,3,5,6-tetraaza-as-indacen-2-yl]-methanol], the Ki was 76.6 nM at JAK2, 51 nM on JAK3, 27.3 nM on TYK2 and 18.2 nM on JAK1.

In the case of `c1cc2c(ncc3nnn(C4CCCOC4)c32)[nH]1` (single isomer, unassigned) [Example 460, 1-(Tetrahydro-pyran-3-yl)-1,6-dihydro-1,2,3,5,6-pentaaza-as-indacene], the Ki on JAK2 turned out to be 17.3 nM; on JAK3 it was 313 nM; on TYK2, 76.5 nM; at JAK1 it was 8.36 nM.

For `CC(C)(C)NCCOCc1nc2cnc3[nH]ccc3c2n1C1CCN(CCC#N)CC1` [Example 833, 3-{4-[2-(2-tert-Butylamino-ethoxymethyl)-6H-1,3,5,6-tetraaza-as-indacen-1-yl]-piperidin-1-yl}-propionitrile], the Ki stood at 14 nM on JAK2, 101 nM at JAK3, 125 nM on TYK2 and 18.1 nM on JAK1.

Take `CC(C)c1nc2cnc3[nH]ccc3c2n1C1CCNCC1` [Example 168, 2-Isopropyl-1-piperidin-4-yl-1,6-dihydro-1,2,3,5,6-tetraaza-as-indacene]: the Ki on JAK2 was determined as 312 nM; at JAK3 it was 330 nM; at TYK2, 1390 nM; at JAK1 it was 25.3 nM.

On to `O=C(CC1CC1)N1CCC[C@@H](n2cnc3cnc4[nH]ccc4c32)C1` [Example 220, 2-Cyclopropyl-1-[(R)-3-(6H-1,3,5,6-tetraaza-as-indacen-1-yl)-piperidin-1-yl]-ethanone], for which the Ki was found to be 7.43 nM on JAK2, 28.3 nM at JAK3, 29.3 nM on TYK2 and 3.31 nM on JAK1.

As to `c1cc2c(ncc3ncn([C@@H]4C[C@H]5CC[C@@H](C4)N5)c32)[nH]1` [Example 93, (1S,3S,5R)-1-(8-aza-bicyclo[3.2.1]oct-3-yl)-1,6-dihydro-1,3,5,6-tetraaza-as-indacene], the Ki at JAK2 was determined as 102 nM; at JAK3, 1000 nM; on TYK2, 323 nM; on JAK1, 29.6 nM.

As for `CC(=O)NCc1nc2cnc3[nH]ccc3c2n1C1CCNCC1` [Example 207, N-(1-Piperidin-4-yl-1,6-dihydro-1,2,3,5,6-tetraaza-as-indacen-2-ylmethyl)-acetamide], the Ki at JAK2 is 1870 nM; at JAK3 it was 3010 nM; on TYK2 it was 1210 nM; on JAK1 it was 78.1 nM.

Consider `O=C(N[C@H]1CC[C@H](n2c(CO)nc3cnc4[nH]ccc4c32)CC1)OCC1CC1` [Example 601, Trans[4-(2-hydroxymethyl-6H-1,2,3,5,6-tetraaza-as-indacen-1-yl)-cyclohexyl]-carbamic acid cyclopropylmethyl ester], for which the Ki came to 57.1 nM on JAK2, 111 nM at JAK3, 149 nM on TYK2 and 3.89 nM at JAK1.

Turning to `CC(C)CC(=O)NC1CCC(n2nnc3cnc4[nH]ccc4c32)CC1` (stereo not drawn) [Example 883, 3-Methyl-N-[4-(6H-1,2,3,5,6-pentaaza-as-indacen-1-yl)-cyclohexyl]-butyramide], the inhibition constant Ki was 15.8 nM on JAK2, 89.3 nM at JAK3, 244 nM at TYK2 and 4.61 nM on JAK1.
